From patent US9895370B2, “Pharmaceutical composition for preventing or treating of cirrhosis of liver comprising G protein coupled receptor 119 ligand as an active ingredient” (DONGGUK UNIVERSITY INDUSTRY—ACADEMIC COOPERATION FOUNDATION, priority 2015, dated 2018) come the findings set out here.

The experiment concerns human HSC line LX-2. Kind of experiment: TGFβ1-inducible collagen I and TGFβ expression in LX-2. The format is cell-based. As to the method:
A human HSC line (LX-2, Milipore, U.S.A.) was plated in a 6-well plate, and grown to confluency in DMEM supplemented with 1% penicillin-streptomycin (Hyclone, U.S.A.) and 2% fetal bovine serum (Hyclone, U.S.A.) at 37° C. in a 5% CO2 incubator. For a further experiment, the confluent HSC line was incubated in an FBS-free medium, instead of the 2% FBS-added medium.
Total RNA ([…]) extracted from cells using Trizol and a Maxime RT PreMix Kit (iNtRON Biotechnology, Gyeonggi-do, Korea) was used to obtain cDNA. For RT-PCR, a target gene was amplified by PCR using a Maxime™ PCR PreMix Kit according to the manufacturer's instructions, and subjected to electrophoresis in a 2% agrose gel, thereby identifying the amplified PCR product.
Meanwhile, for real-time RT-qPCR, the synthesized cDNA was assessed in a CFX Connect™ Real-Time PCR Detection System (Bio-Rad Laboratories, CA, USA) instrument using a SYBR green dye (Bio-Rad). The CP value of the gene was calibrated with the CP value of S 18r gene. Also, through a melting curve analysis, specificity of the amplified PCR product was confirmed.
Sodium dodecylsulfate-polyacrylamide gel electrophoresis (SDS-PAGE) was performed using a gel electrophoresis device (Mighty Small SE 250, Hoefer Scientific Instruments, San Francisco) according to the method established by the inventors. A lysed cell fraction was diluted with a sample dilution buffer [63 mM Tris (pH. 6.8), 10% glycerol, 2% SDS, 0.0013% bromophenol blue, 5% β-mercaptoethanol], and subjected to electrophoresis in an electrode buffer (15 g Tris, 72 g glycerin and 5 g SDS contained in an 1 L solution) using a 8-12% gel. After electrophoresis, the gel was transferred to a nitrocellulose membrane to transfer proteins using an electrophoresis device for transfer in a transfer buffer (25 mM Tris, 192 mM glycerin, 20% v/v methanol (pH. 8.3)] at 40 mA for 3 hours. The nitrocellulose membrane was reacted with first antibodies, reacted with horseradish peroxidase-conjugated goat anti-rabbit IgG and horseradish peroxidase-conjugated goat anti-mouse IgG as secondary antibodies for 1 hour, and visualized using an ECL chemiluminescence system (Amersham, Gaithesberg, Mass.).
A critical cytokine having an influence on the induction of liver fibrosis, TGFβ1, is a potent fibrosis stimulation factor for HSCs. To examine the expression of a liver fibrosis-inducing factor which was increased when the human liver cell line LX-2, cultured by method D was treated with TGFβ1, changes in expression according to the treatment with GPR119 ligands (MBX-2982, GSK1292263) were assessed by the methods described in G and H, thereby observing the effect of the GPR119 ligands.

[1] abbreviates: LX-2 treated with TGFβ1, FIGS. 2c, 2d.

Turning to `CCc1cnc(N2CCC(c3nc(COc4ccc(-n5cnnn5)cc4)cs3)CC2)nc1` [MBX-2982, 4-((4-(1H-tetrazol-1-yl)phenoxy)methyl)-2-(1-(5-ethylpyrimidin-2-yl)piperidin-4-yl)thiazole], the “expression of TGFβ1-inducible liver fibrosis inducing factors (collagen I, TGFβ) with compound C / DN-AMPK” value (AMPK inhibitor compound C treated, DN-AMPK transduced, FIG. 4c) is on record as “inhibitory effect”. Further, where the note is “LX-2 transduced with Pin1 adenovirus, TGFβ1, FIG. 5c”, the “inhibitory effect on collagen I and TGFβ expression under overexpression of Pin1” value was “reversed”. Moreover, under setting [1], the “expression of TGFβ1-inducible TGFβ” value is recorded as “inhibited” and the “expression of TGFβ1-inducible collagen I” value is “inhibited”.
